Like-named read-outs stand apart in the source and are kept apart here.
Assays:
[1] = biological target: photolabile unchained HLA-A*11:01 pMHC-I protein (Homo sapiens, UniProt P04439, A114D/D185E/E176A/F33Y/L180Q/S129P/T187R); experiment: ELISA with photolabile unchained pMHC-I protein and UV irradiation; assay type: binding; conditions: for ELISA450nm: Table 2, 62.5 nM photolabile pMHC-I mixture, 5 μM peptide in PBS, UV 365 nm 2 × 5 min on ice, 2 h room temperature on anti-β2m plate, Abs450nm − Abs570nm, instability cutoff < 0.6
[2] = system: HLA-A*11:01 single chain protein; assay type: biochemical, Human; parameters: EZ50kDa / EZ50kD (pH 6.2) / EZ50kD (pH 8) / EZ50kD (normalised: EBV1101 = 1, EBV0201 = 0) / EZ50kDa rank: unit not given beside the values;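 as to EZ50kD (pH 6.2): scaled with positive control peptide as 1 and negative control peptide as 0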
[3] = EASY MHC-I A*11:01, 2019-07-25, mean of the 2 replicates
[4] = EASY MHC-I A*11:01, run 2019-08-08, 5min, mean of 2 replicates
[5] = EASY MHC-I A*11:01, run 2019-08-06, 5min, mean of 2 replicates
[6] = EASY MHC-I A*11:01, gel 2019-07-17 lr1028-1036 5min, mean of 2 replicates
[7] = EASY MHC-I A*11:01, gel 2019-07-17 lr1028-1036 5min, replicate 1 (lanes 1-14)
[8] = EASY MHC-I A*11:01, gel 2019-07-17 lr1028-1036 5min, replicate 2 (lanes 15-28)

## FLLTKILTI [reference compound]
[1]
  ELISA450nm: 0.1791

## TVIRRRGR [reference compound]
[1]
  ELISA450nm: 0.1482

## TLALEVAQQK [reference compound]
[2]; pH 6.2
  EZ50kD (pH 6.2): 0.7399
[2]
  EZ50kD (pH 8): 0.4517

## YVSAIAQTEK [reference compound]
[2]; pH 6.2
  EZ50kD (pH 6.2): 0.3037

## LVVDFSQFSR [reference compound]
[2]; Table 2, pH 6.2, 37 °C, enterokinase, Eq. (4), instability cutoff < 0.3
  EZ50kD (pH 6.2): 0.9461

## AIKTSPKAN [EX1006]
[1]; […], mean, STDEV
  EASY_mean: 0.003202
[2]; [3]
  EZ_mean: -0.02264

## MATYGWNLVK [reference compound]
[2]; pH 6.2
  EZ50kD (pH 6.2): 0.6384
[2]
  EZ50kD (pH 8): 0.007553

## TDFGRAKLL [LR1013]
[1]; […], mean, STDEV
  EASY_mean: -0.002506
[2]
  EZ_mean: -0.005317

## VAIKTSPKA [EX1005]
[1]; […], mean, STDEV
  EASY_mean: 0.004482
[2]; [3]
  EZ_mean: -0.02025

## QLIMQLMPFG [TM1024]
[1]; ELISA signal, mean, […]
  EASY_mean: -0.01897
[2]; [4]
  EZ_mean: -0.01105
  Norm_mean: 0.009219

## MANEMGFLEK [reference compound]
[2]; pH 6.2
  EZ50kD (pH 6.2): 0.527

## QLIMQLMPFGC [TM1035]
[1]; ELISA signal, mean, […]
  EASY_mean: -0.06893
[2]
  EZ_mean: -0.1197

## LNIDLLWSV [reference compound]
[1]
  ELISA450nm: 0.2738

## SLLDYVREHKD [CS1038]
[1]
  EASY_mean: -0.01097
[2]
  EZ_mean: -0.03388

## MQLMPFGC [TM1008]
[1]; ELISA signal, mean, […]
  EASY_mean: -0.0333
[2]; [5]
  EZ_mean: -0.09972

## TQLMPFGSL [CS1010]
[1]
  EASY_mean: -0.009401
[2]
  EZ_mean: -0.05322

## LIMQLMPFGC [TM1025]
[1]; ELISA signal, mean, […]
  EASY_mean: -0.02724
[2]; [4]
  EZ_mean: -0.05365
  Norm_mean: -0.04493

## FGRAKLLGA [LR1015]
[1]; […], mean, STDEV
  EASY_mean: -0.02405
[2]
  EZ_mean: -0.04617

## LIMQLMPF [TM1006]
[1]; […], mean, STDEV
  EASY_mean: -0.03127
[2]; [5]
  EZ_mean: -0.09815

## MPFGSLLD [CS1004]
[1]
  EASY_mean: -0.003998
[2]
  EZ_mean: -0.07336

## FGSLLDYVR [CS1015]
[1]
  EASY_mean: -0.01602
[2]
  EZ_mean: -0.05849

## GLSPTVWLSA [reference compound]
[1]
  ELISA450nm: 0.2488

## PFGSLLDYVREH [CS1047]
[1]
  EASY_mean: -0.01054

## LMPFGSLLD [CS1012, probably meant CS1032]
[1]
  EASY_mean: -0.02081
[2]
  EZ_mean: -0.06046
[2]; Fig. 2f,g, EGFR peptide library
  EZ MHC-I stability with HLA-A*11:01 single chain protein: strongly stabilizing

## TQLMPFGSLLD [CS1031]
[1]
  EASY_mean: -0.03382
[2]
  EZ_mean: -0.07663

## FGSLLDYV [CS1006]
[1]
  EASY_mean: -0.03548
[2]
  EZ_mean: -0.06948

## STVQLIMQ [TM1002]
[1]; […], mean, STDEV
  EASY_mean: -0.02917
[2]; [5]
  EZ_mean: -0.09047

## TQLMPFGS [CS1001]
[1]
  EASY_mean: 0.00928
[2]
  EZ_mean: -0.06222

## Nc1nc(Nc2ccc3c(c2)CC[C@@H](N2CCCC2)CC3)nn1-c1cc2c(nn1)-c1ccccc1CCC2 [CS1046]
[1]; […], mean, STDEV
  EASY_mean: -0.001122

## ITQLMPFGSL [CS1019]
[1]
  EASY_mean: -0.007918
[2]
  EZ_mean: -0.0702

## KSGAIKVLK [reference compound]
[2]; pH 6.2
  EZ50kD (pH 6.2): 0.819
[2]
  EZ50kD (pH 8): 0.4865

## TDFGRAKLLGA [LR1034]
[1]
  EASY_mean: -0.04602
[2]; [6]
  EZ_mean: -0.04886
[2]; [7]
  EZ50kD (normalised: EBV1101 = 1, EBV0201 = 0): -0.06534
  Norm (50 kDa band adj. volume normalised: Undig_37C = 1, Dig_37C = 0): -0.06378
[2]; [8]
  EZ50kD (normalised: EBV1101 = 1, EBV0201 = 0): -0.03237
  Norm (50 kDa band adj. volume normalised: Undig_37C = 1, Dig_37C = 0): -0.02825

## GSLLDYVR [CS1007]
[1]
  EASY_mean: -0.02696
[2]
  EZ_mean: -0.06759

## SLLDYVRE [CS1008]
[1]
  EASY_mean: -0.02238
[2]
  EZ_mean: -0.06325

## TSPKANKEILD [EX1022]
[1]; ELISA signal, mean, […]
  EASY_mean: -0.01584
[2]; EASY MHC-I A*11:01, 2019-07-26, mean of the 2 replicates
  EZ_mean: -0.1213

## LMPFGSLL [CS1003]
[1]
  EASY_mean: 0.002317
[2]
  EZ_mean: -0.06827

## CLTSTVQLIMQ [TM1029]
[1]; ELISA signal, mean, […]
  EASY_mean: -0.0718
[2]
  EZ_mean: -0.1239

## QLITQLMPFGSL [CS1040]
[1]
  EASY_mean: -0.0163
[2]
  EZ_mean: -0.03735

## FGRAKLLGAEE [LR1036]
[1]
  EASY_mean: -0.04853
[2]; [6]
  EZ_mean: -0.05281
[2]; [7]
  EZ50kD (normalised: EBV1101 = 1, EBV0201 = 0): -0.07114
  Norm (50 kDa band adj. volume normalised: Undig_37C = 1, Dig_37C = 0): -0.06733
[2]; [8]
  EZ50kD (normalised: EBV1101 = 1, EBV0201 = 0): -0.03448
  Norm (50 kDa band adj. volume normalised: Undig_37C = 1, Dig_37C = 0): -0.02973

## MQLMPFGCL [TM1017]
[1]; […], mean, STDEV
  EASY_mean: -0.03322
[2]; EASY MHC-I A*11:01, run 2019-08-07, 5min, mean of 2 replicates
  EZ_mean: -0.1037

## RAKLLGAEEKE [LR1038]
[1]
  EASY_mean: -0.00823
[2]
  EZ_mean: -0.07295

## ITQLMPFGS [CS1009]
[1]
  EASY_mean: -0.02581
[2]
  EZ_mean: -0.06498

## TDFGRAKL [LR1004]
[1]; […], mean, STDEV
  EASY_mean: -0.01664
[2]
  EZ_mean: -0.05517

From article PMC7483518, “Destabilizing single chain major histocompatibility complex class I protein for repurposed enterokinase proteolysis” (Scientific Reports, 2020)
